Among the data in US20170145005A1, “KINASE INHIBITOR” (THE UNIVERSITY OF TOKYO, priority 2014, published 2017) are IC50 values, retold here.

The target of one assay is PIM-3 kinase (Homo sapiens, UniProt Q86V86). Nature of the assay: Measurement of PIM-3 kinase inhibitory activity (fluorescent substrate peptide, capillary electrophoresis). It is filed as biochemical. Particulars: 30 μM ATP, 2 hours at room temperature. The protocol: 1.5 μM of fluorescent substrate peptide (FAM-AKRRRLSSLRA-COOH), 30 μM of ATP, and 0.0833 ng/μL of PIM-3 kinase were incubated with a compound for 2 hours at room temperature, and the Pim-3 kinase activity was measured. The reaction was quantified by separating the substrate and phosphorylation reaction product by capillary electrophoresis (using a Perkin-Elmer EZ reader II) based on the difference in their charges. The results are shown below in Tables 1 and 2.

The test system of assay [1] is L3.6pl. Nature of the assay: Growth inhibitory activity on human pancreatic cancer cell lines (Example 2, WST-8). The class given is cell-based. Particulars: cultured for 72 hours, 2000 cells/well. The protocol: (§1) Two thousand cells of human pancreatic cancer cells lines (L3.6pl, MiaPaca-2, PANC-1, PCI35, PCI66) were seeded in a medium volume of 100 μL in each well of a 96-well microtiter plate. The medium was removed after 18 hours, and 100 μL/well of medium containing the test compound was added. Culture was continued for 72 or 96 hours. The medium containing the test compound was removed, and 100 μL/well of medium containing 10% WST-8 (Dojindo Laboratories Cell Counting kit-8) was added. After culturing for one hour, the OD 450 nm absorbance was measured, and the cell growth inhibitory activity was calculated. Furthermore, RPMI-1640 medium (Sigma) was used as the medium with 10% fetal calf serum (Invitrogen), 50 U/mL penicillin G (Sigma), and 50 μg/mL streptomycin (Sigma) added. The cell lines were cultured at 37° C. in a carbon dioxide incubator with a carbon dioxide concentration of 5%.
(§2) Tables 3 and 4 show the results of compound evaluation when cultured for 96 hours.

The subject of assay [2] is PANC-1. The assay is described as above. The class given is cell-based. The conditions noted are these: cultured for 72 hours, 2000 cells/well. How it is done:
as §1, §2

Assay [3] concerns MiaPaca-2. Described as above. It is filed as cell-based. The conditions noted are these: cultured for 72 hours, 2000 cells/well. The protocol: as §1, §2
Another assay deals with PCI66. Nature of the assay: Growth inhibitory activity on human pancreatic cancer cell lines (Example 4, WST-8). The class given is cell-based. Particulars: Example 4: 72 hours, 3000 cells/well. How it is done:
(§3) Three thousand cells of human pancreatic cancer cell lines (L3.6pl, MiaPaca-2, PANC-1, PCI35, and PCI66) were seeded in a medium volume of 90 μL in each well of a 96-well microtiter plate. After 24 hours, 10 μL/well of medium containing the test compound was added. Culture was continued for 72 hours, and 10 μL/well of WST-8 (Dojindo Laboratories Cell Counting kit-8) was added. After culturing for 2 hours, the OD 450 nm absorbance was measured, and the cell growth inhibitory effect was calculated. The cell lines were cultured in a carbon dioxide incubator with a carbon dioxide concentration of 5%.

Assay [4] has as its system L3.6pl. The description is as above. It is filed as cell-based. The conditions noted are these: Example 4: 72 hours, 3000 cells/well. The protocol:
as §3

The test system of assay [5] is PANC-1. The assay is described as above. The class given is cell-based. Particulars: Example 4: 72 hours, 3000 cells/well. How it is done:
as §3

The test system of assay [6] is MiaPaca-2. Described as above. Particulars: MIA PaCa-2, Example 4: 72 hours, 3000 cells/well. It is filed as cell-based. The protocol: as §3
The next assay relates to PCI35. Described as above. It is filed as cell-based. The conditions noted are these: Example 4: 72 hours, 3000 cells/well. The protocol: as §3

The compound `COc1ccc2c(c1CN1CCNCC1)O/C(=C\c1n[nH]c3nc(C)ccc13)C2=O` [Compound 7, (Z)-6-methoxy-2-[(6-methyl-1H-pyrazolo[3,4-b]pyridin-3-yl)methylene]-7-(piperazin-1-ylmethyl)benzofuran-3(2H)-one] registered an IC50 against PIM-3 kinase of 0.0028 µM.

`COc1ccc2c(c1CN1CCNC[C@H]1C)O/C(=C\c1n[nH]c3ncccc13)C2=O` [Compound 8, (R,Z)-2-[(1H-pyrazolo[3,4-b]pyridin-3-yl)methylene]-6-methoxy-7-[(2-methylpiperazin-1-yl)methyl]benzofuran-3(2H)-one]: the IC50 against PIM-3 kinase worked out at 0.038 µM; with L3.6pl [1] (Homo sapiens, L3.6pl, 72 h), 3.5 µM; in the assay with PANC-1 [2] (Homo sapiens, PANC-1, 72 h), 12 µM; in the assay on MiaPaca-2 [3] (Homo sapiens, MIA PaCa-2), 3.5 µM.

Regarding `COc1ccc2c(c1CN1CCNC[C@@H]1C)O/C(=C\c1n[nH]c3ncccc13)C2=O` [Compound 9, (S,Z)-2-[(1H-pyrazolo[3,4-b]pyridin-3-yl)methylene]-6-methoxy-7-[(2-methylpiperazin-1-yl)methyl]benzofuran-3(2H)-one], the IC50 at PIM-3 kinase stood at 0.0084 µM; with L3.6pl [1] (Homo sapiens, L3.6pl, 72 h), 4 µM; in the assay on PANC-1 [2] (Homo sapiens, PANC-1, 72 h), 12 µM; in the assay with MiaPaca-2 [3] (Homo sapiens, MIA PaCa-2) it was 3 µM.

Turning to `COc1ccc2c(c1CN1C[C@@H](C)N[C@@H](C)C1)O/C(=C\c1n[nH]c3ncccc13)C2=O` [Compound 10, (Z)-2-[(1H-pyrazolo[3,4-b]pyridin-3-yl)methylene]-7-[(cis-3,5-dimethylpiperazin-1-yl)methyl]-6-methoxybenzofuran-3(2H)-one], the IC50 at PIM-3 kinase was 0.019 µM; with L3.6pl [1] (Homo sapiens, L3.6pl, 72 h), 7.5 µM; with PANC-1 [2] (Homo sapiens, PANC-1, 72 h), 14 µM; in the assay with MiaPaca-2 [3] (Homo sapiens, MIA PaCa-2), 3 µM.

Take `COc1ccc2c(c1CN1CCN[C@@H](C)C1)O/C(=C\c1n[nH]c3ncccc13)C2=O` [Compound 11, (S,Z)-2-[(1H-pyrazolo[3,4-b]pyridin-3-yl)methylene]-6-methoxy-7-[(3-methylpiperazin-1-yl)methyl]benzofuran-3(2H)-one]: the IC50 on PIM-3 kinase was determined as 0.0014 µM; with L3.6pl [1] (Homo sapiens, L3.6pl, 72 h), 3.5 µM; in the assay with PANC-1 [2] (Homo sapiens, PANC-1, 72 h), 8.3 µM; with MiaPaca-2 [3] (Homo sapiens, MIA PaCa-2) it was 3.4 µM.

Take `COc1ccc2c(c1CN1CCN[C@H](C)C1)O/C(=C\c1n[nH]c3ncccc13)C2=O` [Compound 12, (R,Z)-2-[(1H-pyrazolo[3,4-b]pyridin-3-yl)methylene]-6-methoxy-7-[(3-methylpiperazin-1-yl)methyl]benzofuran-3(2H)-one]: the 50% inhibitory concentration (IC50) on PIM-3 kinase worked out at 0.0079 µM; with L3.6pl [1] (Homo sapiens, L3.6pl, 72 h) it was 3.5 µM; with PANC-1 [2] (Homo sapiens, PANC-1, 72 h), 8.2 µM; in the assay with MiaPaca-2 [3] (Homo sapiens, MIA PaCa-2) it was 3.2 µM.

Turning to `COc1ccc2c(c1CN1[C@H](C)CNC[C@@H]1C)O/C(=C\c1n[nH]c3ncccc13)C2=O` [Compound 13, (Z)-2-[(1H-pyrazolo[3,4-b]pyridin-3-yl)methylene]-7-[(cis-2,6-dimethylpiperazin-1-yl)methyl]-6-methoxybenzofuran-3(2H)-one], the IC50 against PIM-3 kinase was 0.15 µM; with L3.6pl [1] (Homo sapiens, L3.6pl, 72 h) it was 3.5 µM; in the assay with PANC-1 [2] (Homo sapiens, PANC-1, 72 h), 8.4 µM; in the assay on MiaPaca-2 [3] (Homo sapiens, MIA PaCa-2) it was 2.4 µM.

In turn, `COc1ccc2c(c1CN1CC[C@H](N)C1)O/C(=C\c1n[nH]c3ncccc13)C2=O` [Compound 14, (S,Z)-2-[(1H-pyrazolo[3,4-b]pyridin-3-yl)methylene]-7-[(3-aminopyrrolidin-1-yl)methyl]-6-methoxybenzofuran-3(2H)-one] showed an IC50 against PIM-3 kinase of 0.001 µM. This counts as single-digit nanomolar.

As for `COc1ccc2c(c1CN1CC[C@@H](N)C1)O/C(=C\c1n[nH]c3ncccc13)C2=O` [Compound 15, (R,Z)-2-[(1H-pyrazolo[3,4-b]pyridin-3-yl)methylene]-7-[(3-aminopyrrolidin-1-yl)methyl]-6-methoxybenzofuran-3(2H)-one], half-maximal inhibition against PIM-3 kinase (IC50) required 0.0016 µM.

Regarding `COc1ccc2c(c1CC1CCNCC1)O/C(=C\c1n[nH]c3nc(C)ccc13)C2=O` [Compound 16, (Z)-6-methoxy-2-[(6-methyl-1H-pyrazolo[3,4-b]pyridin-3-yl)methylene]-7-(piperidin-4-ylmethyl)benzofuran-3(2H)-one], inhibition at PIM-3 kinase was half-maximal at 0.0007 µM (IC50).

Take `O=C1/C(=C/c2n[nH]c3ncccc23)Oc2c1ccc(OC(F)F)c2CC1CCNCC1` [Compound 17, (Z)-2-[(1H-pyrazolo[3,4-b]pyridin-3-yl)methylene]-6-(difluoromethoxy)-7-(piperidin-4-ylmethyl)benzofuran-3(2H)-one]: the IC50 was 18 µM with PCI66; 6.2 µM in the assay with L3.6pl [4]; 9.7 µM in the assay on PANC-1 [5]; 3.2 µM in the assay with MiaPaca-2 [6]; 9.3 µM in the assay with PCI35; 0.0022 µM on PIM-3 kinase.

For the compound `COc1ccc2c(c1CC1CCNCC1F)O/C(=C\c1n[nH]c3ncccc13)C2=O` (centres unmarked) [Compound 18, (Z)-2-[(1H-pyrazolo[3,4-b]pyridin-3-yl)methylene]-7-[(3-fluoropiperidin-4-yl)methyl]-6-methoxybenzofuran-3(2H)-one], the IC50 at PIM-3 kinase was 0.00035 µM; with L3.6pl [1] (Homo sapiens, L3.6pl, 72 h), 0.25 µM; in the assay with PANC-1 [2] (Homo sapiens, PANC-1, 72 h) it was 0.42 µM; in the assay on MiaPaca-2 [3] (Homo sapiens, MIA PaCa-2) it was 0.22 µM.

In the case of `COc1ccc2c(c1CC1CCNCC1F)O/C(=C\c1n[nH]c3ncccc13)C2=O` (centres unmarked) [Compound 19, (Z)-2-[(1H-pyrazolo[3,4-b]pyridin-3-yl)methylene]-7-[(3-fluoropiperidin-4-yl)methyl]-6-methoxybenzofuran-3(2H)-one], the IC50 against PIM-3 kinase was found to be 0.0007 µM; in the assay on L3.6pl [1] it was 0.3 µM; in the assay on PANC-1 [2] it was 0.33 µM; in the assay on MiaPaca-2 [3] it was 0.22 µM.

`CCOc1ccc2c(c1C(C)N1CCNCC1)O/C(=C\c1n[nH]c3ncccc13)C2=O` (centres unmarked) [Compound 22, (Z)-2-[(1H-pyrazolo[3,4-b]pyridin-3-yl)methylene]-6-ethoxy-7-[1-(piperazin-1-yl)ethyl]benzofuran-3(2H)-one]: the half-inhibitory concentration (IC50) with PCI66 was 2.5 µM; in the assay with L3.6pl [4], 2.8 µM; in the assay with PANC-1 [5], 2.7 µM; with MiaPaca-2 [6], 1.3 µM; in the assay on PCI35, 1.8 µM; on PIM-3 kinase, 0.0013 µM.

Consider `CC(c1c(OCC2CC2)ccc2c1O/C(=C\c1n[nH]c3ncccc13)C2=O)N1CCNCC1` (centres unmarked) [Compound 23, (Z)-2-[(1H-pyrazolo[3,4-b]pyridin-3-yl)methylene]-6-(cyclopropylmethoxy)-7-[1-(piperazin-1-yl)ethyl]benzofuran-3(2H)-one], for which the IC50 with PCI66 amounted to 4.2 µM; with L3.6pl [4], 9.8 µM; in the assay with PANC-1 [5], 8 µM; in the assay on MiaPaca-2 [6], 3.8 µM; in the assay with PCI35, 5.3 µM; against PIM-3 kinase it was 0.00062 µM.

At PIM-3 kinase, `C=C(CN1CCNCC1)c1c(OC)ccc2c1O/C(=C\c1n[nH]c3ncccc13)C2=O` [Compound 24, (Z)-2-[(1H-pyrazolo[3,4-b]pyridin-3-yl)methylene]-6-methoxy-7-[3-(piperazin-1-yl)prop-1-en-2-yl]benzofuran-3(2H)-one] showed a half-maximal inhibitory concentration (IC50) of 0.012 µM. That is a double-digit nanomolar value.

Consider `CN[C@H]1CCN(Cc2c(OC)ccc3c2O/C(=C\c2n[nH]c4ncccc24)C3=O)C1` [Compound 26, (S,Z)-2-[(1H-pyrazolo[3,4-b]pyridin-3-yl)methylene]-6-methoxy-7-{[3-(methylamino)pyrrolidin-1-yl]methyl}benzofuran-3(2H)-one], for which inhibition against PIM-3 kinase was half-maximal at 0.0011 µM (IC50).

For `COc1ccc2c(c1C(C)CN1CCNCC1)O/C(=C\c1n[nH]c3ncccc13)C2=O` (centres unmarked) [Compound 27, (Z)-2-[(1H-pyrazolo[3,4-b]pyridin-3-yl)methylene]-6-methoxy-7-[1-(piperazin-1-yl)propan-2-yl]benzofuran-3(2H)-one], the IC50 against PIM-3 kinase stood at 0.0064 µM.

As for `O=C1/C(=C/c2n[nH]c3ncccc23)Oc2c1ccc(Cl)c2CC1CCNCC1` [Compound 28, (Z)-2-[(1H-pyrazolo[3,4-b]pyridin-3-yl)methylene]-6-chloro-7-(piperidin-4-ylmethyl)benzofuran-3(2H)-one], it took 0.0013 µM to reach half-maximal inhibition against PIM-3 kinase (IC50).

On PIM-3 kinase, `COc1ccc2c(c1CN1CCC[C@@H]1CN)O/C(=C\c1n[nH]c3ncccc13)C2=O` [Compound 31, (R,Z)-2-[(1H-pyrazolo[3,4-b]pyridin-3-yl)methylene]-7-{[2-(aminomethyl)pyrrolidin-1-yl]methyl}-6-methoxybenzofuran-3(2H)-one] had a concentration for half-maximal inhibition (IC50) of 0.00096 µM.
